The subject of one series is Bacillus subtilis. In words: Antibacterial activity against Bacillus subtilis. It is filed as functional.
The nature of series [1]: Toxicity in orally dosed mouse. The following applies: in vivo, po. Type of series: organism-based.
For a further series, the system named is KB. In words: Cytotoxicity against human KB cells. It is filed as functional.
In a further series the test system is Rous sarcoma virus. In words: Antiviral activity against Rous sarcoma virus at 0.5 mg/kg. It is filed as functional.

≈ marks a conversion by molar mass, not a printed value.

Regarding `CC(=O)c1cccc(N[C@H]2[C@H](N)[C@@](NC(=O)N(C)C)([C@H](C)O)[C@@](C)(O)[C@@]2(O)COC(=O)c2c(C)cccc2O)c1` [PACTAMYCIN], the MIC worked out at 0.8 µg/mL (≈ 1.43 µM) against Bacillus subtilis and 0.003 µg/mL (≈ 0.00537 µM) with KB. This compound had an LD50 in series [1] of 10.7 mg/kg. The inhibition in vivo at 0.5 mg/kg in the series on Rous sarcoma virus stood at 30%.

As usually defined, the LD50 is the dose at which mortality reaches 50%. A lower LD50 goes with greater toxicity. The inhibition in vivo is the percentage by which the read-out fell short of the control. High values mean a response far below the control, low ones a response near the control.

The values are drawn from ChEMBL document CHEMBL1151336, “Recent Biosynthetic Studies on Antibiotics” (J Nat Prod, 1980).
